Measurements: PubChem BioAssay (NCI)
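1) Cells in 96-well plates. 2) Compound, 48 h, 5 concentrations. 3) Linear interpolation between surrounding doses. 4) Unreached endpoint = highest concentration. Abbreviation: GI50, concentration required for 50% inhibition of growth. TGI is the concentration that stops growth completely.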

Assays:
Assay in all cases: NCI tumour cell line growth inhibition, 48 h
[1] = system: 786-0 renal
[2] = system: A498 renal
[3] = system: A549 NSCLC
[4] = system: ACHN renal
[5] = system: BT-549 breast
[6] = system: CAKI-1 renal
[7] = system: CCRF-CEM leukemia
[8] = system: COLO 205 colon
[9] = system: DU-145 prostate
[10] = system: EKVX NSCLC
[11] = system: HCC-2998 colon
[12] = system: HCT-116 colon
[13] = system: HCT-15 colon
[14] = system: HL-60(TB) leukemia
[15] = system: HOP-62 NSCLC
[16] = system: HOP-92 NSCLC
[17] = system: HS 578T breast
[18] = system: HT29 colon
[19] = system: IGROV1 ovarian
[20] = system: K-562 leukemia
[21] = system: KM12 colon
[22] = system: LOX IMVI melanoma
[23] = system: M14 melanoma
[24] = system: MALME-3M melanoma
[25] = system: MCF7 breast
[26] = system: MDA-MB-231 breast
[27] = system: MDA-MB-435
[28] = system: MDA-MB-468 breast
[29] = system: MOLT-4 leukemia
[30] = system: NCI-H226 lung
[31] = system: NCI-H23 lung
[32] = system: NCI-H460 lung
[33] = system: NCI-H522 lung
[34] = system: NCI/ADR-RES ovarian
[35] = system: OVCAR-3 ovarian
[36] = system: OVCAR-4 ovarian
[37] = system: OVCAR-5 ovarian
[38] = system: OVCAR-8 ovarian
[39] = system: PC-3 prostate
[40] = system: RPMI-8226 leukemia
[41] = system: RXF 393 renal
[42] = system: SF-268 CNS
[43] = system: SF-295 CNS
[44] = system: SF-539 CNS
[45] = system: SK-MEL-2 melanoma
[46] = system: SK-MEL-28 melanoma
[47] = system: SK-MEL-5 melanoma
[48] = system: SK-OV-3 ovarian
[49] = system: SN12C renal
[50] = system: SNB-19 CNS
[51] = system: SNB-75 CNS
[52] = system: SR leukemia
[53] = system: SW-620 colon
[54] = system: T-47D breast
[55] = system: TK-10 renal
[56] = system: U251 CNS
[57] = system: UACC-257 melanoma
[58] = system: UACC-62 melanoma
[59] = system: UO-31 renal

O=C(N=Nc1c(O)[nH]c2ccc(Cl)cc12)c1ccc2nc(-c3ccc(Cl)cc3)[nH]c2c1
GI50 [1]: 3.08 µM
TGI [1]: 21.2 µM
GI50 [2]: 18.4 µM
TGI [2]: 57 µM
GI50 [3]: 29 µM
TGI [3]: > 57.7 µM
GI50 [4]: 23.5 µM
TGI [4]: > 57.7 µM
GI50 [5]: 7.12 µM
TGI [5]: 25.8 µM
GI50 [6]: > 57.7 µM
TGI [6]: > 57.7 µM
GI50 [7]: 0.969 µM
TGI [7]: 4.39 µM
GI50 [8]: 2.27 µM
TGI [8]: 10.5 µM
GI50 [9]: 3.74 µM
TGI [9]: > 57.7 µM
GI50 [10]: 16.6 µM
TGI [10]: > 57.7 µM
GI50 [11]: 3.4 µM
TGI [11]: > 57.7 µM
GI50 [12]: 2.35 µM
TGI [12]: > 57.7 µM
GI50 [13]: > 57.7 µM
TGI [13]: > 57.7 µM
GI50 [14]: 10.1 µM
TGI [14]: > 57.7 µM
GI50 [15]: 6.93 µM
TGI [15]: 24 µM
GI50 [16]: 8.67 µM
TGI [16]: 39 µM
GI50 [17]: 2.67 µM
TGI [17]: 41.3 µM
GI50 [18]: 2.33 µM
TGI [18]: > 57.7 µM
GI50 [19]: 3.64 µM
TGI [19]: > 57.7 µM
GI50 [20]: 1.62 µM
TGI [20]: > 57.7 µM
GI50 [21]: > 57.7 µM
TGI [21]: > 57.7 µM
GI50 [22]: 1.07 µM
TGI [22]: 2.32 µM
GI50 [23]: 3.82 µM
TGI [23]: > 57.7 µM
GI50 [24]: 2.27 µM
TGI [24]: 10.9 µM
GI50 [25]: 1.39 µM
TGI [25]: > 57.7 µM
GI50 [26]: 1.51 µM
TGI [26]: 4.74 µM
GI50 [27]: 2.05 µM
TGI [27]: 13.3 µM
GI50 [28]: 1.4 µM
TGI [28]: 4.88 µM
GI50 [29]: 1.42 µM
TGI [29]: 16.5 µM
GI50 [30]: 13.7 µM
TGI [30]: > 57.7 µM
GI50 [31]: 2.22 µM
TGI [31]: 9.84 µM
GI50 [32]: 2.38 µM
TGI [32]: > 57.7 µM
GI50 [33]: 3.73 µM
TGI [33]: 27.2 µM
GI50 [34]: > 57.7 µM
TGI [34]: > 57.7 µM
GI50 [35]: 5.2 µM
TGI [35]: > 57.7 µM
GI50 [36]: 1.98 µM
TGI [36]: 18.8 µM
GI50 [37]: 3.5 µM
TGI [37]: > 57.7 µM
GI50 [38]: 4.42 µM
TGI [38]: > 57.7 µM
GI50 [39]: 7.5 µM
TGI [39]: > 57.7 µM
GI50 [40]: > 57.7 µM
TGI [40]: > 57.7 µM
GI50 [41]: 2.99 µM
TGI [41]: 19.4 µM
GI50 [42]: 1.78 µM
TGI [42]: 10.6 µM
GI50 [43]: 2.97 µM
TGI [43]: 20.2 µM
GI50 [44]: 2.11 µM
TGI [44]: 8.18 µM
GI50 [45]: 41.5 µM
TGI [45]: > 57.7 µM
GI50 [46]: 6.25 µM
TGI [46]: 49.7 µM
GI50 [47]: > 57.7 µM
TGI [47]: > 57.7 µM
GI50 [48]: 15.5 µM
TGI [48]: > 57.7 µM
GI50 [49]: 2.53 µM
TGI [49]: 33.2 µM
GI50 [50]: 2.05 µM
TGI [50]: 10.7 µM
GI50 [51]: 1.74 µM
TGI [51]: 14 µM
GI50 [52]: 3.29 µM
TGI [52]: > 57.7 µM
GI50 [53]: 1.91 µM
TGI [53]: > 57.7 µM
GI50 [54]: 2 µM
TGI [54]: 44.3 µM
GI50 [55]: 40.9 µM
TGI [55]: > 57.7 µM
GI50 [56]: 1.75 µM
TGI [56]: 6.46 µM
GI50 [57]: 40 µM
TGI [57]: > 57.7 µM
GI50 [58]: 4.64 µM
TGI [58]: 26.6 µM
GI50 [59]: > 57.7 µM
TGI [59]: > 57.7 µM
